Measured values reported in the supplement of paper PMC9663587.

What was measured:
[1] = compound: C1=CC2=C(C=CC(=C2)C=C3C(=O)NC(=NCC4=CC=CS4)S3)N=C1 [R0-3306]
[2] = compound: CC(=O)O[C@H]1C(=O)[C@@]2(C)[C@H]([C@H](OC(=O)c3ccccc3)[C@]3(O)C[C@H](OC(=O)[C@H](O)[C@@H](NC(=O)c4ccccc4)c4ccccc4)C(C)=C1C3(C)C)[C@]1(OC(C)=O)CO[C@@H]1C[C@@H]2O [Paclitaxel]
[3] = compound: T1, CC(=O)c1c(C)c2cnc(Nc3ccc(N4CCN(CCOCCOCCOCCNC(=O)COc5cccc6c5C(=O)N(C5CCC(=O)NC5=O)C6=O)CC4)cn3)nc2n(C2CCCC2)c1=O [BSJ-03-123]
[4] = compound: CC(C)Nc1cc(-c2c[nH]c(C(=O)N[C@H](CO)c3cccc(Cl)c3)c2)c(Cl)cn1 [BVD523]
[5] = compound: CCC1=CN=CN=C1N2CCN(CC2)CC3=NC4=C(N3)C=C(C=C4)C(F)(F)F
[6] = compound: CCOc1cc2ncc(C#N)c(Nc3ccc(OCc4ccccn4)c(Cl)c3)c2cc1NC(=O)/C=C/CN(C)C [Neratinib/HKI272]
[7] = compound: T2, CN1CC[C@H](c2c(O)cc(O)c3c(=O)cc(-c4ccccc4Cl)oc23)[C@H](O)C1 [Flavopiridol]
[8] = compound: NC1(C(=O)N[C@@H](CCO)c2ccc(Cl)cc2)CCN(c2nc[nH]c3nccc2-3)CC1 [AZD5363]
[9] = compound: C=CC(=O)Nc1ccc(C(=O)Nc2[nH]nc3c2CN(C(=O)N[C@H](CN(C)C)c2ccccc2)C3(C)C)cc1 [YKL-5-124]; test: GR value, 72 h; higher = faster growth (1 = untreated, <0 = killing);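 further: breast cancer and non-malignant breast epithelial lines, nine half-log doses, viable cells counted by Hoechst and LIVE/DEAD dye imaging versus time-zero plates and DMSO controls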
[10] = compound: T1, BSJ-03-123; test: as above
[11] = compound: CCN1CCN(Cc2ccc(Nc3ncc(F)c(-c4cc(F)c5nc(C)n(C(C)C)c5c4)n3)nc2)CC1; test: as above
[12] = compound: CCc1cnn2c(NCc3ccc[n+]([O-])c3)cc(N3CCCC[C@H]3CCO)nc12; test: as above
[13] = compound: CN(C)C(=O)c1cc2cnc(Nc3ccc(N4CCNCC4)cn3)nc2n1C1CCCC1 [LEE011/Ribociclib]; test: as above
[14] = compound: CN(C)C/C=C/C(=O)Nc1ccc(C(=O)N2CCC[C@@H](Nc3ncc(Cl)c(-c4c[nH]c5ccccc45)n3)C2)cc1 [THZ531]; test: as above
[15] = compound: CN(C)C/C=C/C(=O)Nc1ccc(C(=O)Nc2cccc(Nc3ncc(Cl)c(-c4c[nH]c5ccccc45)n3)c2)cc1 [THZ1]; test: as above
[16] = compound: T2, Flavopiridol; test: as above
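Wherever GR50, 72 h is given: breast cancer and non-malignant breast epithelial cell lines, Deep Dye Drop or Dye Drop imaging, nine half-log doses, GR normalized to time-zero plates and DMSO-only controls.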

Q: For ZR7530, which “GR50, 72 h” value [1] is on record?
A: 6.17 µM

Q: What about the “GR50, 72 h” value [2] of the same cell line?
A: 0.00474 µM

Q: And the “GR50, 72 h” value [3]?
A: 0.58 µM

Q: And the “GR50, 72 h” value [4]?
A: > 10 µM

Q: And the “GR50, 72 h” value [5]?
A: 5.13 µM

Q: And the “GR50, 72 h” value [6]?
A: 0.000681 µM

Q: What about the “GR50, 72 h” value [7] of the same cell line?
A: 0.192 µM

Q: And the “GR50, 72 h” value [8]?
A: 0.192 µM

Q: What about the GR value ([9]; 0.001 µM) of the same cell line?
A: 0.344 GR

Q: And the GR value ([9]; 0.003162 µM)?
A: 0.254 GR

Q: And the GR value ([9]; 0.01 µM)?
A: 0.245 GR

Q: What about the GR value ([9]; 0.03162 µM) of the same cell line?
A: 0.309 GR

Q: And the GR value ([9]; 0.1 µM)?
A: 0.197 GR

Q: And the GR value ([9]; 0.3162 µM)?
A: 0.138 GR

Q: What about the GR value ([9]; 1 µM) of the same cell line?
A: 0.176 GR

Q: What about the GR value ([9]; 3.162 µM) of the same cell line?
A: 0.177 GR

Q: What about the GR value ([9]; 10 µM) of the same cell line?
A: -0.625 GR

Q: And the GR value ([10]; 0.001 µM)?
A: 0.784 GR

Q: And the GR value ([10]; 0.003162 µM)?
A: 0.857 GR

Q: And the GR value ([10]; 0.01 µM)?
A: 0.824 GR

Q: What about the GR value ([10]; 0.03162 µM) of the same cell line?
A: 0.72 GR

Q: And the GR value ([10]; 0.1 µM)?
A: 0.835 GR

Q: And the GR value ([10]; 0.3162 µM)?
A: 0.615 GR

Q: And the GR value ([10]; 1 µM)?
A: 0.398 GR

Q: What about the GR value ([10]; 3.162 µM) of the same cell line?
A: 0.395 GR

Q: And the GR value ([10]; 10 µM)?
A: -0.258 GR

Q: What about the GR value ([11]; 0.001 µM) of the same cell line?
A: 1.05 GR

Q: What about the GR value ([11]; 0.003162 µM) of the same cell line?
A: 1.03 GR

Q: What about the GR value ([11]; 0.01 µM) of the same cell line?
A: 0.769 GR

Q: And the GR value ([11]; 0.03162 µM)?
A: 0.57 GR

Q: And the GR value ([11]; 0.1 µM)?
A: 0.322 GR

Q: What about the GR value ([11]; 0.3162 µM) of the same cell line?
A: 0.276 GR

Q: And the GR value ([11]; 1 µM)?
A: 0.282 GR

Q: What about the GR value ([11]; 3.162 µM) of the same cell line?
A: 0.229 GR

Q: What about the GR value ([11]; 10 µM) of the same cell line?
A: 0.127 GR

Q: And the GR value ([12]; 0.0001 µM)?
A: 0.895 GR

Q: What about the GR value ([12]; 0.0003162 µM) of the same cell line?
A: 0.995 GR

Q: And the GR value ([12]; 0.001 µM)?
A: 1.06 GR

Q: And the GR value ([12]; 0.003162 µM)?
A: 0.953 GR

Q: What about the GR value ([12]; 0.01 µM) of the same cell line?
A: 0.909 GR

Q: What about the GR value ([12]; 0.03162 µM) of the same cell line?
A: -0.42 GR

Q: What about the GR value ([12]; 0.1 µM) of the same cell line?
A: -0.601 GR

Q: What about the GR value ([12]; 0.3162 µM) of the same cell line?
A: -0.696 GR

Q: What about the GR value ([12]; 1 µM) of the same cell line?
A: -0.728 GR

Q: And the GR value ([13]; 0.001 µM)?
A: 0.854 GR

Q: And the GR value ([13]; 0.003162 µM)?
A: 0.695 GR

Q: What about the GR value ([13]; 0.01 µM) of the same cell line?
A: 0.687 GR

Q: And the GR value ([13]; 0.03162 µM)?
A: 0.857 GR

Q: And the GR value ([13]; 0.1 µM)?
A: 0.607 GR

Q: And the GR value ([13]; 0.3162 µM)?
A: 0.463 GR

Q: And the GR value ([13]; 1 µM)?
A: 0.434 GR

Q: And the GR value ([13]; 3.162 µM)?
A: 0.443 GR

Q: What about the GR value ([13]; 10 µM) of the same cell line?
A: 0.41 GR

Q: What about the GR value ([14]; 0.0001 µM) of the same cell line?
A: 0.959 GR

Q: What about the GR value ([14]; 0.0003162 µM) of the same cell line?
A: 1.15 GR

Q: What about the GR value ([14]; 0.001 µM) of the same cell line?
A: 0.926 GR

Q: And the GR value ([14]; 0.003162 µM)?
A: 0.99 GR

Q: What about the GR value ([14]; 0.01 µM) of the same cell line?
A: 1.02 GR

Q: And the GR value ([14]; 0.03162 µM)?
A: 0.98 GR

Q: What about the GR value ([14]; 0.1 µM) of the same cell line?
A: -0.379 GR

Q: What about the GR value ([14]; 0.3162 µM) of the same cell line?
A: -0.732 GR

Q: What about the GR value ([14]; 1 µM) of the same cell line?
A: -0.42 GR

Q: What about the GR value ([15]; 0.0001 µM) of the same cell line?
A: 0.924 GR

Q: And the GR value ([15]; 0.0003162 µM)?
A: 1.19 GR

Q: What about the GR value ([15]; 0.001 µM) of the same cell line?
A: 1.07 GR

Q: And the GR value ([15]; 0.003162 µM)?
A: 0.851 GR

Q: What about the GR value ([15]; 0.01 µM) of the same cell line?
A: 0.985 GR

Q: And the GR value ([15]; 0.03162 µM)?
A: 0.289 GR

Q: What about the GR value ([15]; 0.1 µM) of the same cell line?
A: -0.492 GR

Q: What about the GR value ([15]; 0.3162 µM) of the same cell line?
A: -0.524 GR

Q: And the GR value ([15]; 1 µM)?
A: -0.638 GR

Q: And the GR value ([16]; 0.0001 µM)?
A: 1.03 GR

Q: And the GR value ([16]; 0.0003162 µM)?
A: 1.14 GR

Q: What about the GR value ([16]; 0.001 µM) of the same cell line?
A: 1.04 GR

Q: What about the GR value ([16]; 0.003162 µM) of the same cell line?
A: 0.795 GR

Q: What about the GR value ([16]; 0.01 µM) of the same cell line?
A: 0.93 GR

Q: And the GR value ([16]; 0.03162 µM)?
A: 1.13 GR

Q: What about the GR value ([16]; 0.1 µM) of the same cell line?
A: 0.766 GR

Q: And the GR value ([16]; 0.3162 µM)?
A: 0.119 GR

Q: What about the GR value ([16]; 1 µM) of the same cell line?
A: -0.662 GR
